In patent US20080161232A1, “C5a Receptor Antagonist” (JERINI AG, priority 2005, published 2008):
Positions of bridges follow the written chain, without caps; N, C: chain ends. Non-standard residues stand in square brackets, D forms with d. Residues, ends and D or L forms follow the SMILES beside them. Phe(3-Cl) = N[C@@H](Cc1cccc(Cl)c1)C(=O)O; Phe(3-OMe) = COc1cccc(C[C@H](N)C(=O)O)c1; Phe(3-F) = N[C@@H](Cc1cccc(F)c1)C(=O)O; Phe(4-F) = N[C@@H](Cc1ccc(F)cc1)C(=O)O; Phe(2-F) = N[C@@H](Cc1ccccc1F)C(=O)O; Bta = N[C@@H](Cc1csc2ccccc12)C(=O)O; cisHyp = O=C(O)[C@@H]1C[C@H](O)CN1; d(hCha) = N[C@H](CCC1CCCCC1)C(=O)O; Hyp = O=C(O)[C@@H]1C[C@@H](O)CN1; NMeF = CN[C@@H](Cc1ccccc1)C(=O)O; d(hLeu) = CC(C)CC[C@@H](N)C(=O)O; 2Thi = N[C@@H](Cc1cccs1)C(=O)O; Cit = NC(=O)NCCC[C@H](N)C(=O)O; dCha = N[C@H](CC1CCCCC1)C(=O)O; dChg = N[C@@H](C(=O)O)C1CCCCC1; Nle = CCCC[C@H](N)C(=O)O; Orn = NCCC[C@H](N)C(=O)O; Aze = O=C(O)[C@@H]1CCN1; NBuGly = CCCCNCC(=O)O

molecular target: T1, human C5aR(CD88) (Homo sapiens, UniProt P21730); experiment: Determination of the IC50 value in an enzyme release assay (functional assay, antagonistic activity); assay type: cell-based; conditions: antagonistic activity; IC50 group in enzyme release assay, RBL cells expressing human C5aR(CD88); read-out: activity (group)
T1 construct: expressed in transfected cells; host or cells: rat basophilic leukemia cells (RBL)
T1 sequence (P21730 1-350): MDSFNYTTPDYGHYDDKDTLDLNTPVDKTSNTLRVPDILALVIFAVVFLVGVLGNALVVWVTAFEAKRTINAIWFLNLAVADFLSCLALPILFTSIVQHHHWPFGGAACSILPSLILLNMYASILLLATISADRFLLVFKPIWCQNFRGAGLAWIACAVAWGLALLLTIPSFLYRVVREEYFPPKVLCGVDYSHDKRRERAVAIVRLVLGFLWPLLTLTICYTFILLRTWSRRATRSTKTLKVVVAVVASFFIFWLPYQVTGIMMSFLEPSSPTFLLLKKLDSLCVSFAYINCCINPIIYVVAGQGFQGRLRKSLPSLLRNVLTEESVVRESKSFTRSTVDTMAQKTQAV

Q: For `CCCCN(CC(=O)N1CCC[C@H]1C(=O)N[C@H](CC1CCCCC1)C(=O)N[C@@H](Cc1c[nH]c2ccccc12)C(=O)N[C@@H](Cc1ccccc1)C(N)=O)C(=O)[C@H](Cc1ccccc1)NC(C)=O` [Compound 148, Ac-Phe-N(nBu)-CH2—CO-Pro-cha-Trp-Phe-NH2] (Ac-F[NBuGly]P[dCha]WF-NH2), which IC50 is on record?
A: 200 to 2000 nM

Q: With `CC(=O)N[C@@H](C)C(=O)N[C@@H](Cc1ccccc1)C(=O)N[C@@H](CCCN)C(=O)N1CC[C@H]1C(=O)N[C@H](CC1CCCCC1)C(=O)N[C@@H](Cc1csc2ccccc12)C(=O)N[C@@H](Cc1ccccc1)C(N)=O` [Compound 151, Ac-Ala-Phe-Orn-Aze-cha-Bta-Phe-NH2] (Ac-AF[Orn][Aze][dCha][Bta]F-NH2) as the compound, how does the IC50 read?
A: 20 to 50 nM

Q: For `CC(=O)N[C@@H](CCCNC(N)=O)C(=O)N[C@@H](Cc1ccccc1)C(=O)N[C@@H](CCCN)C(=O)N1CC[C@H]1C(=O)N[C@H](CC1CCCCC1)C(=O)N[C@@H](Cc1csc2ccccc12)C(=O)N[C@@H](Cc1ccccc1)C(N)=O` [Compound 153, Ac-Cit-Phe-Orn-Aze-cha-Bta-Phe-NH2] (Ac-[Cit]F[Orn][Aze][dCha][Bta]F-NH2), which IC50 is on record?
A: 20 to 50 nM

Q: `CC(=O)NCC(=O)N[C@@H](Cc1ccccc1)C(=O)N[C@@H](CCCN)C(=O)N1CC[C@H]1C(=O)N[C@H](CC1CCCCC1)C(=O)N[C@@H](Cc1csc2ccccc12)C(=O)N[C@@H](Cc1ccccc1)C(N)=O` [Compound 154, Ac-Gly-Phe-Orn-Aze-cha-Bta-Phe-NH2] (Ac-GF[Orn][Aze][dCha][Bta]F-NH2) was tested. Which IC50 did it give?
A: 10 to 20 nM

Q: Which IC50 does the source give for `CC(=O)NCC(=O)N[C@@H](Cc1ccccc1)C(=O)N[C@@H](CCCN)C(=O)N1CC[C@H]1C(=O)N[C@@H](C(=O)N[C@@H](Cc1csc2ccccc12)C(=O)N[C@@H](Cc1ccccc1)C(N)=O)C1CCCCC1` [Compound 155, Ac-Gly-Phe-Orn-Aze-chg-Bta-Phe-NH2] (Ac-GF[Orn][Aze][dChg][Bta]F-NH2) here?
A: 50 to 200 nM

Q: How did the IC50 turn out when `CC(=O)NCC(=O)N[C@@H](Cc1ccccc1)C(=O)N[C@@H](CCCN)C(=O)N1CC[C@H]1C(=O)N[C@H](CCC1CCCCC1)C(=O)N[C@@H](Cc1csc2ccccc12)C(=O)N[C@@H](Cc1ccccc1)C(N)=O` [Compound 156, Ac-Gly-Phe-Orn-Aze-hch-Bta-Phe-NH2] (Ac-GF[Orn][Aze][d(hCha)][Bta]F-NH2) was run?
A: 50 to 200 nM

Q: For `CC(=O)NCC(=O)N[C@@H](Cc1cccs1)C(=O)N[C@@H](CCCN)C(=O)N1CC[C@H]1C(=O)N[C@H](CC1CCCCC1)C(=O)N[C@@H](Cc1csc2ccccc12)C(=O)N[C@@H](Cc1ccccc1)C(N)=O` [Compound 157, Ac-Gly-Thi-Orn-Aze-cha-Bta-Phe-NH2] (Ac-G[2Thi][Orn][Aze][dCha][Bta]F-NH2), which IC50 is on record?
A: 20 to 50 nM

Q: Which IC50 does the source give for `CC(=O)N1C[C@H](O)C[C@H]1C(=O)N[C@@H](Cc1ccccc1)C(=O)N[C@@H](CCCN)C(=O)N1CC[C@H]1C(=O)N[C@H](CC1CCCCC1)C(=O)N[C@@H](Cc1csc2ccccc12)C(=O)N[C@@H](Cc1ccccc1)C(N)=O` [Compound 159, Ac-Hyp-Phe-Orn-Aze-cha-Bta-Phe-NH2] (Ac-[Hyp]F[Orn][Aze][dCha][Bta]F-NH2) here?
A: 20 to 50 nM

Q: `CC(=O)N[C@@H](CCCCN)C(=O)N[C@@H](Cc1ccccc1)C(=O)N[C@@H](CCCN)C(=O)N1CC[C@H]1C(=O)N[C@H](CC1CCCCC1)C(=O)N[C@@H](Cc1csc2ccccc12)C(=O)N[C@@H](Cc1ccccc1)C(N)=O` [Compound 160, Ac-Lys-Phe-Orn-Aze-cha-Bta-Phe-NH2] (Ac-KF[Orn][Aze][dCha][Bta]F-NH2) was tested. Which IC50 did it give?
A: 20 to 50 nM

Q: Which IC50 does the source give for `CC(=O)N[C@@H](Cc1cccc(F)c1)C(=O)N[C@@H](CCCN)C(=O)N1CCC[C@H]1C(=O)N[C@H](CC1CCCCC1)C(=O)N[C@@H](Cc1csc2ccccc12)C(=O)N[C@@H](Cc1ccccc1)C(N)=O` [Compound 161, Ac-Mff-Orn-Pro-cha-Bta-Phe-NH2] (Ac-[Phe(3-F)][Orn]P[dCha][Bta]F-NH2) here?
A: 50 to 200 nM

Q: `CC(=O)N[C@@H](Cc1cccc(F)c1)C(=O)N[C@@H](CCCN)C(=O)N1CCC[C@H]1C(=O)N[C@H](CCC(C)C)C(=O)N[C@@H](Cc1csc2ccccc12)C(=O)N[C@@H](Cc1ccccc1)C(N)=O` [Compound 162, Ac-Mff-Orn-Pro-hle-Bta-Phe-NH2] (Ac-[Phe(3-F)][Orn]P[d(hLeu)][Bta]F-NH2) was tested. Which IC50 did it give?
A: 50 to 200 nM

Q: How did the IC50 turn out when `CC(=O)N[C@@H](Cc1cccc(F)c1)C(=O)N[C@@H](CCCN)C(=O)N1CCC[C@H]1C(=O)N[C@H](CCC(C)C)C(=O)N[C@@H](Cc1cccc(Cl)c1)C(=O)N[C@@H](Cc1cccc(F)c1)C(N)=O` [Compound 163, Ac-Mff-Orn-Pro-hle-Mcf-Mff-NH2] (Ac-[Phe(3-F)][Orn]P[d(hLeu)][Phe(3-Cl)][Phe(3-F)]-NH2) was run?
A: 50 to 200 nM

Q: With `COc1cccc(C[C@H](NC(C)=O)C(=O)N[C@@H](CCCN)C(=O)N2CCC[C@H]2C(=O)N[C@H](CCC(C)C)C(=O)N[C@@H](Cc2ccc(F)cc2)C(=O)N[C@@H](Cc2ccccc2)C(N)=O)c1` [Compound 164, Ac-Mmy-Orn-Pro-hle-Pff-Phe-NH2] (Ac-[Phe(3-OMe)][Orn]P[d(hLeu)][Phe(4-F)]F-NH2) as the compound, how does the IC50 read?
A: 50 to 200 nM

Q: `CC(=O)N(C)[C@@H](Cc1ccccc1)C(=O)N[C@@H](CCCN)C(=O)N1CCC[C@H]1C(=O)N[C@H](CC1CCCCC1)C(=O)N[C@@H](Cc1csc2ccccc12)C(=O)N[C@@H](Cc1ccccc1)C(N)=O` [Compound 165, Ac-NMF-Orn-Pro-cha-Bta-Phe-NH2] (Ac-[NMeF][Orn]P[dCha][Bta]F-NH2) was tested. Which IC50 did it give?
A: 50 to 200 nM

Q: With `CC(=O)N[C@@H](Cc1ccccc1F)C(=O)N[C@@H](CCCN)C(=O)N1CCC[C@H]1C(=O)N[C@H](CC1CCCCC1)C(=O)N[C@@H](Cc1csc2ccccc12)C(=O)N[C@@H](Cc1ccccc1)C(N)=O` [Compound 166, Ac-Off-Orn-Pro-cha-Bta-Phe-NH2] (Ac-[Phe(2-F)][Orn]P[dCha][Bta]F-NH2) as the compound, how does the IC50 read?
A: 20 to 50 nM

Q: How did the IC50 turn out when `CC(=O)N[C@@H](Cc1ccccc1F)C(=O)N[C@@H](CCCN)C(=O)N1CCC[C@H]1C(=O)N[C@H](CCC(C)C)C(=O)N[C@@H](Cc1csc2ccccc12)C(=O)N[C@@H](Cc1ccccc1)C(N)=O` [Compound 167, Ac-Off-Orn-Pro-hle-Bta-Phe-NH2] (Ac-[Phe(2-F)][Orn]P[d(hLeu)][Bta]F-NH2) was run?
A: 20 to 50 nM

Q: `CC(=O)N[C@@H](CCCN)C(=O)N[C@@H](Cc1ccccc1)C(=O)N[C@@H](CCCN)C(=O)N1CC[C@H]1C(=O)N[C@H](CC1CCCCC1)C(=O)N[C@@H](Cc1csc2ccccc12)C(=O)N[C@@H](Cc1ccccc1)C(N)=O` [Compound 168, Ac-Orn-Phe-Orn-Aze-cha-Bta-Phe-NH2] (Ac-[Orn]F[Orn][Aze][dCha][Bta]F-NH2) was tested. Which IC50 did it give?
A: 50 to 200 nM

Q: With `CC(=O)N[C@@H](Cc1ccc(F)cc1)C(=O)N[C@@H](CCCN)C(=O)N1CCC[C@H]1C(=O)N[C@H](CC1CCCCC1)C(=O)N[C@@H](Cc1csc2ccccc12)C(=O)N[C@@H](Cc1ccccc1)C(N)=O` [Compound 169, Ac-Pff-Orn-Pro-cha-Bta-Phe-NH2] (Ac-[Phe(4-F)][Orn]P[dCha][Bta]F-NH2) as the compound, how does the IC50 read?
A: 20 to 50 nM

Q: Which IC50 does the source give for `CC(=O)N[C@@H](Cc1ccc(F)cc1)C(=O)N[C@@H](CCCN)C(=O)N1CCC[C@H]1C(=O)N[C@H](CCC(C)C)C(=O)N[C@@H](Cc1csc2ccccc12)C(=O)N[C@@H](Cc1ccccc1)C(N)=O` [Compound 170, Ac-Pff-Orn-Pro-hle-Bta-Phe-NH2] (Ac-[Phe(4-F)][Orn]P[d(hLeu)][Bta]F-NH2) here?
A: 50 to 200 nM

Q: Which IC50 does the source give for `CC(=O)N[C@@H](Cc1ccc(F)cc1)C(=O)N[C@@H](CCCN)C(=O)N1CCC[C@H]1C(=O)N[C@H](CCC(C)C)C(=O)N[C@@H](Cc1cccc(Cl)c1)C(=O)N[C@@H](Cc1ccc(F)cc1)C(N)=O` [Compound 171, Ac-Pff-Orn-Pro-hle-Mcf-Pff-NH2] (Ac-[Phe(4-F)][Orn]P[d(hLeu)][Phe(3-Cl)][Phe(4-F)]-NH2) here?
A: 50 to 200 nM

Q: Which IC50 does the source give for `CC(=O)N[C@@H](Cc1ccccc1)C(=O)N[C@H]1CSSC[C@@H](C(N)=O)NC(=O)[C@H](Cc2ccccc2)NC(=O)[C@H](Cc2csc3ccccc23)NC(=O)[C@@H](CC2CCCCC2)NC(=O)[C@@H]2CCCN2C1=O` [Compound 172, Ac-Phe-[Cys-Pro-cha-Bta-Phe-Cys]-NH2] (Ac-FCP[dCha][Bta]FC-NH2; disulfide 2-7) here?
A: 50 to 200 nM

Q: `CCCC[C@@H]1NC(=O)[C@H](Cc2c[nH]c3ccccc23)NC(=O)[C@@H](CC2CCCCC2)NC(=O)[C@H](CC(N)=O)NC(=O)[C@@H](NC(=O)[C@H](Cc2ccccc2)NC(C)=O)CCCNC1=O` [Compound 173, Ac-Phe-[Orn-Asn-cha-Trp-Nle]] (Ac-F[Orn]N[dCha]W[Nle]; lactam 2-C) was tested. Which IC50 did it give?
A: 50 to 200 nM

Q: With `CCCC[C@@H]1NC(=O)[C@H](Cc2c[nH]c3ccccc23)NC(=O)[C@@H](CC2CCCCC2)NC(=O)[C@@H]2CCN2C(=O)[C@@H](NC(=O)[C@H](Cc2ccccc2)NC(C)=O)CCCNC1=O` [Compound 174, Ac-Phe-[Orn-Aze-cha-Trp-Nle]] (Ac-F[Orn][Aze][dCha]W[Nle]; lactam 2-C) as the compound, how does the IC50 read?
A: 50 to 200 nM

Q: How did the IC50 turn out when `CCCC[C@@H]1NC(=O)[C@H](Cc2c[nH]c3ccccc23)NC(=O)[C@@H](CC2CCCCC2)NC(=O)[C@@H]2C[C@H](O)CN2C(=O)[C@@H](NC(=O)[C@H](Cc2ccccc2)NC(C)=O)CCCNC1=O` [Compound 175, Ac-Phe-[Orn-Chy-cha-Trp-Nle]] (Ac-F[Orn][cisHyp][dCha]W[Nle]; lactam 2-C) was run?
A: 50 to 200 nM

Q: With `CC(=O)N[C@@H](Cc1ccccc1)C(=O)N[C@H]1CCCNC(=O)[C@H](Cc2ccccc2)NC(=O)[C@H](Cc2c[nH]c3ccccc23)NC(=O)[C@@H](CC2CCCCC2)NC(=O)[C@@H]2C[C@@H](OC(C)=O)CN2C1=O` [Compound 176, Ac-Phe-[Orn-HyA-cha-Trp-Phe]] (Ac-F[Orn][Hyp](Ac)[dCha]WF; lactam 2-C) as the compound, how does the IC50 read?
A: 50 to 200 nM
